Data published in ChEMBL document CHEMBL4270519, “Synthesis and biological evaluation of β2-adrenoceptor agonists bearing the 2-amino-2-phenylethanol scaffold” (Eur J Med Chem, 2018).

Columns and labels:
[1] = molecular target: T1, Beta-2 adrenergic receptor (Homo sapiens, UniProt P07550); assay: Agonist activity at human beta2 adrenergic receptor expressed in HEK293 cells assessed as increase in cAMP accumulation after 60 mins by HTRF assay; assay type: functional, cell-based
Target sequence in this assay (P07550 whole entry): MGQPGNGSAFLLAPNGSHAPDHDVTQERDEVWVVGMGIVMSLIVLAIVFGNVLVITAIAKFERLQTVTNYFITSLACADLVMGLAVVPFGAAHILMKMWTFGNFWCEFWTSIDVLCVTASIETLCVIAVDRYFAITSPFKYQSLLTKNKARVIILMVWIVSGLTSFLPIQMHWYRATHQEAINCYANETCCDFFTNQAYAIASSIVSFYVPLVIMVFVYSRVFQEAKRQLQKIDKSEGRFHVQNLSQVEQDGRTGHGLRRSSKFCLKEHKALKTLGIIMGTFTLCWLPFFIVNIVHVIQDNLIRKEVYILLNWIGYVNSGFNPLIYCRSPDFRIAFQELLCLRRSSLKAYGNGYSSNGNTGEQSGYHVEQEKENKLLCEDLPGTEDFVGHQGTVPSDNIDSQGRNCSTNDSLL

[2] = molecular target: Beta-1 adrenergic receptor (Homo sapiens, UniProt P08588); assay: Agonist activity at human beta1 adrenergic receptor expressed in HEK293 cells assessed as increase in cAMP accumulation after 60 mins by HTRF assay; assay type: functional, cell-based
[3] = species on record: Homo sapiens; assay: Selectivity ratio of pEC50 for human beta2 adrenergic receptor expressed in HEK293 cells to pEC50 for human beta1 adrenergic receptor expressed in HEK293 cells; assay type: cell-based
[4] = molecular target: T1, Beta-2 adrenergic receptor; assay: Intrinsic activity at human beta2 adrenergic receptor in HEK293 cells assessed as increase in cAMP accumulation after 60 mins by HTRF assay relative to isoprenaline; assay type: functional, cell-based
Target sequence in this assay (P07550 whole entry, looked up): as the sequence (P07550 whole entry) above

[5] = tested on: Smooth muscle of trachea; assay: Reduction in histamine-induced muscle contractions in Dunkin-Hartley guinea pig tracheal smooth muscle ring by measuring muscle tone; assay type: functional, Cavia porcellus
[6] = molecular target: Beta-3 adrenergic receptor (Homo sapiens, UniProt P13945); assay: Agonist activity at human beta3 adrenergic receptor expressed in HEK293 cells assessed as increase in cAMP accumulation after 60 mins by HTRF assay; assay type: functional, cell-based
[7] = tested on: Smooth muscle of trachea; assay: Reduction in histamine-induced muscle contractions in Dunkin-Hartley guinea pig tracheal smooth muscle ring by measuring muscle tone relative to control; assay type: functional; details: Cavia porcellus
[8] = tested on: Smooth muscle of trachea; assay: Intrinsic activity at Dunkin-Hartley guinea pig tracheal smooth muscle ring assessed as reduction in histamine-induced muscle contractions by measuring muscle tone relative to isoprenaline; assay type: functional, Cavia porcellus
[9] = Half life in human liver microsomes at 10 uM by LC/MS/MS analysis; assay type: ADME, microsome
[10] = Apparent permeability from apical to basolateral side in human Caco2 cells at 2 uM after 2 hrs by LC/MS/MS analysis; assay type: ADME, cell-based; details: Caco-2
[11] = Intrinsic clearance in human liver microsomes at 10 uM after 10 mins in presence of NADPH by LC/MS/MS analysis; assay type: ADME, microsome; details: read-out: CLH
[12] = Apparent permeability from basolateral to apical side in human Caco2 cells at 2 uM after 2 hrs by LC/MS/MS analysis; assay type: ADME, cell-based; details: Caco-2

Beta-1 adrenergic receptor, sequence (P08588 whole entry): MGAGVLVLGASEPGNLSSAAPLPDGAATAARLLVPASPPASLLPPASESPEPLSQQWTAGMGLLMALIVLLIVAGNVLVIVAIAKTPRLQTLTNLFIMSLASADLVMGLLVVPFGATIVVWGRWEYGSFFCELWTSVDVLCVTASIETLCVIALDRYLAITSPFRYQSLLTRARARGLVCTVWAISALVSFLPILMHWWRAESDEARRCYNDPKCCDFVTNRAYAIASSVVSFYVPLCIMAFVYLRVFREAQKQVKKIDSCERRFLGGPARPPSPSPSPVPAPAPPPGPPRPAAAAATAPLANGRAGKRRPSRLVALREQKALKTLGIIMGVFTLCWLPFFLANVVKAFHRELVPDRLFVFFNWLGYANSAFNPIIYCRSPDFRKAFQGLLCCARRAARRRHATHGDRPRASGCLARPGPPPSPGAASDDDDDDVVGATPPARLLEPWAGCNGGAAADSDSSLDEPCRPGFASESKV
Beta-3 adrenergic receptor, sequence (P13945 whole entry): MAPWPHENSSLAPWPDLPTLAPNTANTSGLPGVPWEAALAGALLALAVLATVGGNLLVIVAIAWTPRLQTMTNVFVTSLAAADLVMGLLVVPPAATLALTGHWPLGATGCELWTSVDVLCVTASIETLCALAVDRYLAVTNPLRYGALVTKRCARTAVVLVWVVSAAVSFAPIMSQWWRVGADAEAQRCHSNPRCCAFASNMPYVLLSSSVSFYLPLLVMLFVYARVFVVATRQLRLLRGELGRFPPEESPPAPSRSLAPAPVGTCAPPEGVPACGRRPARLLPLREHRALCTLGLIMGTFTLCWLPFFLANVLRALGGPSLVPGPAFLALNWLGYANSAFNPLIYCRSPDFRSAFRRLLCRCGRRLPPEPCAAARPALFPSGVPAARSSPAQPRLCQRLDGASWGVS

| SMILES | EC50 [2] | Ratio [3] | EC50 ([1]; read-out: pEC50 (converted)) | further results |
| --- | --- | --- | --- | --- |
| O=c1ccc2c([C@H](CO)NCCc3ccc(O)cc3)ccc(O)c2[nH]1 |  |  |  | EC50 ([1]; read-out: EC50): 328 nM |
| O=c1ccc2c(C(CO)NCCc3ccccc3O)ccc(O)c2[nH]1 (stereo not drawn) | > 10000 nM | > 3.03 | 10 nM | Intrinsic activity [4]: 54.2% |
| CC(C)C(=O)Nc1ccc(CCNC(CO)c2ccc(O)c3[nH]c(=O)ccc23)cc1 (stereo not drawn) |  |  | 50.1 nM |  |
| COc1ccc(CCNC(CO)c2ccc(O)c3[nH]c(=O)ccc23)cc1 (stereo not drawn) | > 10000 nM | > 2.71 | 20 nM |  |
| O=c1ccc2c(C(CO)NCCCCOCCCCc3ccccc3)ccc(O)c2[nH]1 (stereo not drawn) |  |  | 251 nM |  |
| O=c1ccc2c(C(CO)NCCc3ccccc3)ccc(O)c2[nH]1 (stereo not drawn) | 832 nM | 2.72 | 1.58 nM | pD2 [5]: 7.81; EC50 [6]: > 10000 nM; Intrinsic activity [4]: 57.4%; Emax [7]: 255%; Intrinsic activity [8]: 100% |
| O=c1ccc2c(C(CO)NCCCCc3ccccc3)ccc(O)c2[nH]1 (stereo not drawn) | > 10000 nM | > 2.86 | 12.6 nM |  |
| COc1ccccc1CCNC(CO)c1ccc(O)c2[nH]c(=O)ccc12 (stereo not drawn) | > 10000 nM | > 3.3 | 5.01 nM | pD2 [5]: 6.03; EC50 [6]: > 10000 nM; Intrinsic activity [4]: 48.6%; Emax [7]: 111%; Intrinsic activity [8]: 44% |
| O=c1ccc2c(C(CO)NCCc3ccc(O)cc3)ccc(O)c2[nH]1 (stereo not drawn) | > 10000 nM | > 3.5 | 3.16 nM | pD2 [5]: 7.98; EC50 [6]: > 10000 nM; Intrinsic activity [4]: 46.3%; Emax [7]: 250%; Intrinsic activity [8]: 98% |
| O=c1ccc2c(C(CO)NCCc3cccc(O)c3)ccc(O)c2[nH]1 (stereo not drawn) |  |  | 794 nM |  |
| O=c1ccc2c([C@@H](CO)NCCc3ccc(O)cc3)ccc(O)c2[nH]1 |  |  |  | half-life at 10 µM [9]: 1.81 h; Papp A→B at 2 h, 2 µM [10]: 0.43 ×10⁻⁶ cm/s; EC50 ([1]; read-out: EC50): 1.26 nM; CLint scaled at 10 µM [11]: 11.5 mL/min/kg; Papp B→A at 2 h, 2 µM [12]: 0.74 ×10⁻⁶ cm/s |
| O=c1ccc2c(C(CO)NCCc3cccc(Cl)c3)ccc(O)c2[nH]1 (stereo not drawn) | 3160 nM | 3.05 | 2.51 nM |  |
| CC(C)(Cc1ccccc1)NC(CO)c1ccc(O)c2[nH]c(=O)ccc12 (stereo not drawn) | > 10000 nM | > 2.28 | 50.1 nM |  |
| O=c1ccc2c(C(CO)NCCCc3ccccc3)ccc(O)c2[nH]1 (stereo not drawn) | 832 nM | 1.89 | 10 nM | EC50 [6]: > 10000 nM; Intrinsic activity [4]: 55.8% |
| CCc1cc2c(cc1CC)CC(NC(CO)c1ccc(O)c3[nH]c(=O)ccc13)C2 (stereo not drawn) |  |  | 316 nM |  |
| O=c1ccc2c(C(CO)NCC(c3ccccc3)c3ccccc3)ccc(O)c2[nH]1 (stereo not drawn) |  |  | 631 nM |  |
| O=c1ccc2c(C(CO)NCCc3ccccc3Cl)ccc(O)c2[nH]1 (stereo not drawn) | > 10000 nM | > 3.66 | 2 nM |  |
| O=C(Cc1ccccc1)Nc1ccc(CCNC(CO)c2ccc(O)c3[nH]c(=O)ccc23)cc1 (stereo not drawn) |  |  | 3.98 nM |  |
| O=c1ccc2c(C(CO)NCCc3c[nH]c4ccccc34)ccc(O)c2[nH]1 (stereo not drawn) |  |  | 316 nM |  |
| O=c1ccc2c(C(CO)NCCc3ccc(Cl)cc3)ccc(O)c2[nH]1 (stereo not drawn) | 1580 nM | 1.6 | 39.8 nM |  |
| Nc1ccc(CCNC(CO)c2ccc(O)c3[nH]c(=O)ccc23)cc1 (stereo not drawn) |  |  | 79.4 nM |  |
| COc1cccc(CCNC(CO)c2ccc(O)c3[nH]c(=O)ccc23)c1 (stereo not drawn) | 631 nM | 2.62 | 2 nM | Intrinsic activity [4]: 52.5% |
| O=c1ccc2c(C(CO)NCCCCCCOCCCCc3ccccc3)ccc(O)c2[nH]1 (stereo not drawn) | > 10000 nM | > 3.31 | 5.01 nM |  |
| O=C(Nc1ccc(CCNC(CO)c2ccc(O)c3[nH]c(=O)ccc23)cc1)c1ccccc1 (stereo not drawn) |  |  | 50.1 nM |  |
| CCCCC(=O)Nc1ccc(CCNC(CO)c2ccc(O)c3[nH]c(=O)ccc23)cc1 (stereo not drawn) |  |  | 316 nM |  |
| CC(C)NCC(O)c1ccc(O)c(O)c1 (stereo not drawn) [ISOPROTERENOL] |  |  |  | half-life at 10 µM [9]: 0.205 h; Emax [7]: 254%; CLint scaled at 10 µM [11]: 112 mL/min/kg |
| CC(C)CC(=O)Nc1ccc(CCNC(CO)c2ccc(O)c3[nH]c(=O)ccc23)cc1 (stereo not drawn) |  |  | 631 nM |  |
